Values after ≈ are worked out from the molar mass of the structure shown. Like-named read-outs stand apart in the source and are kept apart here.
What was measured:
[1] = test system: bulbils of yam; assay: Sprouting of yam bulbils in dark or light (Example 7, Table 4); assay type: in vivo, Discorea batatas Decne.; details: 23° C., 20 days
Experimental: 4-Hydroxy-2,6,7-trimethoxyphenanthrene and 3,3'-dihydroxy-5-methoxybibenzylwere respectively dissolved at various concentrations in water containing 0.05% of Tween 20, and 30 ml each of the resulting solutions were poured into culture dishes of 9 cm in diameter containing 1 g of absorbent cotton.
Thirty bulbils of yam (Discorea batatas Decne.) which had been awakened from dormancy were planted in each of the so arranged culture dishes, and the germination test was carried out at 23° C. either in the dark or in the light. […]

[2] = Solubility; assay type: physicochemical; details: for Solubility in ordinary solvents: ethanol, acetone, ethyl acetate and ether
[3] = test system: lettuce seeds; assay: Inhibition of germination of lettuce seeds, 50% inhibition (Example 5, Table 2); assay type: in vivo, Lactuca sativa L.; details: 1% dimethylformamide; for IC50: Lactuca sativa, 48 h
Experimental: Every compound shown in Table 1 was respectively dissolved at various concentrations in distilled water containing 1% of dimethylformamide, and 3 ml each of the resulting solutions was poured into a culture dish of 6 cm diameter in which 2 filter papers were spread. About 100 seeds (non-dormant ware head seeds) of lettuce (Lactuca sativa L.) were shown in each dish, and they were allowed to stand at 23° C. in the dark for 2 days. Germination percentages were determined and plotted against the concentrations of the compound tested. From the graphs obtained the concentration to give 50% inhibition was determined. The definition of inhibition rate is given in the following formula: [formula] Usually the germination percentage of the untreated control lot was about 95%.

[4] = test system: oats coleoptile; assay: Growth inhibition in oats coleoptile sections (Example 4, Table 1); design: species or system Avena sativa L.; details: for IC50: Avena sativa
Experimental: A compound illustrated in Table 1 was dissolved in dimethylformamide and the solution was diluted to desired concentrations with water containing 2% of sucrose. In control test dimethylformamide was applied in the same amount as that of treated groups. This solvent gives no phytotoxicity to plants to be tested if the content in water is 1% or less. The prepared liquors were poured into culture dishes of 3 cm diameter, the amount of the medium poured into one dish being 2 ml. Sections of 5 mm in length cut from a coleoptiles of oats (Avena sativa L.) which have been grown in the dark were floated on the test media in the culture dishes and cultured at 25° C. for 20 hours in the dark to determine the growth-inhibition degrees.
In the control group, the coleoptile elongated by about 5 mm during the experiment.

[5] = test system: oats coleoptiles; assay: Growth inhibition of oats coleoptile pieces with indoleacetic acid (Example 9, Table 6); design: species or system Avena sativa L.; details: Avena sativa, read-out: Growth Inhibition ratio
Experimental: Oats (Avena sativa L.) were allowed to germinate under a weak red light at 25° C. and 3 days after germination sections of […] in length were cut from coleoptiles about 25 mm in length. 4-Hydroxy-2,6,7-trimethoxyphenanthrene or 3,3-dihydroxy-5-methoxybibenzyl was dissolved in a culture medium comprising 0.1 mg/l of indoleacetic acid, 0.05% of Tween 20 and 2% of sucrose, the balance being water. Ten of the above cut-out coleoptile pieces were flated on the resulting culture medium and cultivation was conducted at 25° C. for 18 hours to examine the growth state and the results shown in Table 6 were obtained.

[6] = test system: Bulbils of yam; assay: Germination (sprouting) of yam bulbils awakened from dormancy (Example 6, Table 3); assay type: in vivo, Dioscorea batatas Decne.; details: 300 μg/ml; 23° C., light of 1800 luxes, 2 weeks; untreated control 80
Experimental: Bulbils (fleshy buds for breeding formed on stems) of yam (Dioscorea batatas Decne.) were stored at a low temperature of 5° C. for 3 months and awakened from hibernation. These fleshy buds were treated with the agricultural chemical of this invention in the following manner to lead them to hibernation again.
Every active ingredient compound of this invention shown in the following Table 3 was dissolved emulsified in distilled water containing 1% of dimethylformamide and 0.05% of Tween 20. 25 ml of the resulting liquor was poured into a culture dish of 9 cm diameter in which absorbent cotton was spread, and 30 of bulbis which had been subjected to the above low temperature treatment and awakened from dormancy were sown on the dish and they were allowed to sprout at 23° C. under light of 1800 luxes for 2 weeks.

[7] = test system: seeds of a lettuce; assay: Germination ratio of lettuce seeds (Example 8, Table 5); assay type: in vivo, Lactuca sativa L.; details: for Germination Ratio: 23° C., 2 days, untreated control 90; for Germination after washing and transplanting: washed with water, transplanted on culture dish free of compound
Experimental: 4-Hydroxy-2,6,7-trimethoxyphenanthrene and 3,3'-dihydroxy-5-methoxybibenzylwere respectively dissolved in water containing 0.05% of Tween 20 and 1% of dimethylformamide, and each of the resulting solution was poured into a culture dish, 6 cm in diameter, in which 2 layers of filter paper were spread to form a germination bed. 100 seeds of a lettuce (Lactuca sativa L.) were sown on the germination bed and cultivation was conducted for 2 days at 23° C. […] [formula]

[8] = test system: Seedings of lettuce; assay: Growth inhibition of lettuce seedling stems (hypocotyls) (Example 10, Table 7); assay type: in vivo, Lactuca sativa L.; details: Lactuca sativa, 72 h, read-out: Growth Inhibition Ratio
Experimental: 4-Hydroxy-2,6,7-trimethoxyphenanthrene or 3,3'-dihydroxy-5-methoxybibenzyl was dissolved in acetone, and the resulting solution was placed in culture dishes in which 2 layers of filter paper were spread so as to give required amounts of the test compound. After the acetone was removed by evaporation, Hoagland's nutrient solution containing 0.05% of Tween 20 was poured into the culture dishes. Seedings of lettuce (Lactuca sativa L.), which had been germinated in a different place, were transplanted to the culture dishes and cultivation was carried out in a light place at 23° C. for 3 days. Then, the lengths of the stems (hypocotyls) were measured to determined the growth inhibition ratio.

[9] = 100 mg/l, dark place, untreated control 56
[10] = 100 mg/l, light place, untreated control 44
[11] = 300 mg/l, dark place, untreated control 56
[12] = 300 mg/l, light place, untreated control 44
[13] = 1000 mg/l, dark place, untreated control 56
[14] = 23° C., dark, 2 days, read-out: Inhibition of Germination of Lettuce Seeds, Concentration Giving 50% Inhibition
[15] = 5 mm sections, 25° C., 20 hours, dark, read-out: Growth Inhibition in oats coleoptile (concentration giving 50% inhibition)
[16] = read-out: Inhibition of Germination of Lettuce Seeds, Concentration Giving 50% Inhibition, 23° C., dark, 2 days
[17] = 20 h, read-out: Growth Inhibition in oats coleoptile (concentration giving 50% inhibition), 5 mm sections, 25° C., 20 hours, dark

Compound: COc1cc(O)cc(CCc2cccc(O)c2)c1 [Compound 8, 3,3'-dihydroxy-5-methoxybibenzyl]
- Sprouting Ratio [1, 9]: 56%
- Sprouting Ratio [1, 10]: 23%
- Sprouting Ratio [1, 11]: 22%
- Sprouting Ratio [1, 12]: 18%
- Sprouting Ratio [1, 13]: 14%
- Solubility in ordinary solvents [2]: Soluble
- Solubility in hexane [2]: insoluble
- Solubility in water [2]: difficultly soluble
- IC50 [3, 14]: 80 µg/mL (≈ 327 µM)
- IC50 [4, 15]: 100 µg/mL (≈ 409 µM)
- inhibition at 30 µg/mL ([5]; 30 mg/l, 0.1 mg/l indoleacetic acid, 25° C., 18 hours): 39%
- inhibition at 100 µg/mL ([5]; 100 mg/l, 0.1 mg/l indoleacetic acid, 25° C., 18 hours): 76%
- inhibition at 300 µg/mL ([5]; 300 mg/l, 0.1 mg/l indoleacetic acid, 25° C., 18 hours): 84%
- Germination Ratio [6]: 50%
- Germination Ratio ([7]; 30 mg/l): 52%
- Germination Ratio ([7]; 100 mg/l): 26%
- Germination Ratio ([7]; 300 mg/l): 0%
- Blight of germination-inhibited seeds ([7]; in vivo): not blighted
- Germination after washing and transplanting [7]: complete germination
- inhibition at 30 µg/mL ([8]; 30 mg/l, stem (hypocotyl) length, light place, 23° C., 3 days): 21%
- inhibition at 100 µg/mL ([8]; 100 mg/l, stem (hypocotyl) length, light place, 23° C., 3 days): 48%
- inhibition at 300 µg/mL ([8]; 300 mg/l, stem (hypocotyl) length, light place, 23° C., 3 days): 86%

Compound: COc1cc(O)cc(CCc2ccccc2)c1 [Compound 1, 3-hydroxy-5-methoxybibenzyl]
- IC50 [3, 14]: 60 µg/mL (≈ 263 µM)
- IC50 [4, 15]: 80 µg/mL (≈ 350 µM)

Compound: Oc1cc(O)c2c(c1)CCc1cc(O)c(O)cc1-2 [Compound 16, 2,3,5,7-tetrahydroxy-9,10-dihydrophenanthrene]
- IC50 [3, 14]: 160 µg/mL (≈ 655 µM)
- IC50 [4, 15]: 150 µg/mL (≈ 614 µM)

Compound: COc1ccc(CCc2cc(O)cc(O)c2)cc1O [Compound 7, 3,3',5'-trihydroxy-4-methoxybibenzyl]
- IC50 [3, 14]: 75 µg/mL (≈ 288 µM)
- IC50 [4, 15]: 75 µg/mL (≈ 288 µM)

Compound: COc1cc(CCc2ccccc2O)c(O)c(OC)c1 [Compound 2, 2,2'-dihydroxy-3,5-dimethoxybibenzyl]
- Solubility in ordinary solvents [2]: Soluble
- Solubility in hexane [2]: insoluble
- Solubility in water [2]: insoluble
- IC50 [3, 14]: 100 µg/mL (≈ 365 µM)
- IC50 [4, 15]: 100 µg/mL (≈ 365 µM)

Compound: Oc1c(Cl)cc(Cl)cc1CCc1cc(Cl)cc(Cl)c1O [Compound 6, 3,5,3',5'-tetrachloro-2,2'-dihydroxybibenzyl]
- IC50 [3, 14]: 10 µg/mL (≈ 28.4 µM)
- IC50 [4, 15]: 30 µg/mL (≈ 85.2 µM)
- Germination Ratio [6]: 15%

Compound: CC(=O)c1cc(CCc2ccccc2)c(O)cc1O [Compound 4, 4,6-dihydroxy-3-acetyldibenzyl]
- IC50 [3, 14]: 90 µg/mL (≈ 351 µM)
- IC50 [4, 15]: 90 µg/mL (≈ 351 µM)
- Germination Ratio [6]: 63%

Compound: COc1cc(OC)c2c(ccc3ccc(O)cc32)c1 [Compound 13, 2,4-dimethoxy-6-hydroxyphenanthrene]
- Inhibition of Germination of Lettuce Seeds, Concentration Giving 50% Inhibition ([3]; 23° C., dark, 2 days): 80 µg/mL
- Growth Inhibition in oats coleoptile (concentration giving 50% inhibition) ([4]; 5 mm sections, 25° C., 20 hours, dark): 90 µg/mL
- Germination Ratio [6]: 60%

Compound: Oc1ccc(CCc2ccccc2)c(O)c1 [Compound 5, 2,4-dihydroxybibenzyl]
- IC50 [3, 14]: 90 µg/mL (≈ 420 µM)
- IC50 [4, 15]: 110 µg/mL (≈ 513 µM)

Compound: COc1cc2ccc3cc(O)c(O)cc3c2c(O)c1OC [Compound 12, 4,6,7-trihydroxy-2,3-dimethoxyphenanthrene]
- IC50 [3, 16]: 140 µg/mL (≈ 489 µM)
- IC50 [4, 17]: 120 µg/mL (≈ 419 µM)

Compound: CC(=O)c1ccc2c(c1)CCc1cc(O)c(C(C)=O)cc1-2 [Compound 15, 7-hydroxy-2,6-diacetyl-9,10-dihydrophenanthrene]
- IC50 [3, 14]: 80 µg/mL (≈ 285 µM)
- IC50 [4, 15]: 130 µg/mL (≈ 464 µM)

Compound: COc1cc(O)c2c(c1)CCc1cc(O)c(OC)cc1-2 [Compound 18, 4,7-dihydroxy-2,6-dimethoxy-9,10-dihydrophenanthrene]
- IC50 [3, 14]: 160 µg/mL (≈ 588 µM)
- IC50 [4, 15]: 180 µg/mL (≈ 661 µM)

Compound: COc1cc(O)c2c(ccc3cc(OC)c(OC)cc32)c1 [Compound 10, 4-hydroxy-2,6,7-trimethoxyphenanthrene]
- Sprouting Ratio [1, 9]: 46%
- Sprouting Ratio [1, 10]: 14%
- Sprouting Ratio [1, 11]: 30%
- Sprouting Ratio [1, 12]: 8%
- Sprouting Ratio [1, 13]: 23%
- IC50 [3, 16]: 60 µg/mL (≈ 211 µM)
- IC50 [4, 17]: 90 µg/mL (≈ 317 µM)
- inhibition at 30 µg/mL ([5]; 18 h): 16%
- inhibition at 100 µg/mL ([5]; 18 h): 44%
- inhibition at 300 µg/mL ([5]; 18 h): 79%
- Germination Ratio [6]: 45%
- Germination Ratio ([7]; 30 mg/l): 78%
- Germination Ratio ([7]; 100 mg/l): 43%
- Germination Ratio ([7]; 300 mg/l): 10%
- Blight of germination-inhibited seeds ([7]; after treatment): not blighted
- Germination after washing and transplanting [7]: complete germination
- inhibition at 30 µg/mL [8]: 13%
- inhibition at 100 µg/mL [8]: 45%
- inhibition at 300 µg/mL [8]: 72%

Compound: CC(=O)c1cc2ccccc2c2cc(Cl)ccc12 [Compound 14, 6-chloro-9-acetylphenanthrene]
- IC50 [3, 16]: 30 µg/mL (≈ 118 µM)
- IC50 [4, 17]: 70 µg/mL (≈ 275 µM)
- Germination Ratio [6]: 70%

Compound: COc1cc(OC)c2c(ccc3ccc(O)cc32)c1 [Compound 9, 2,4-dimethoxy-6-hydroxyphenanthrene]
- IC50 [3, 16]: 100 µg/mL (≈ 393 µM)
- IC50 [4, 17]: 130 µg/mL (≈ 511 µM)

Compound: COc1cc2c(cc1O)CCc1cc(OC)c(OC)c(O)c1-2 [Compound 17, 4,7-dihydroxy-2,3,6-trimethoxy-9,10-dihydrophenanthrene]
- IC50 [3, 14]: 120 µg/mL (≈ 397 µM)
- IC50 [4, 15]: 200 µg/mL (≈ 662 µM)
- Germination Ratio [6]: 40%

Compound: COc1cc(CCc2ccc(O)cc2)cc(O)c1OC [Compound 3, 3,4'-dihydroxy-4,5-dimethoxybibenzyl]
- IC50 [3, 14]: 120 µg/mL (≈ 437 µM)
- IC50 [4, 15]: 150 µg/mL (≈ 547 µM)
- Germination Ratio [6]: 42%

Compound: COc1cc2ccc3cc(O)c(OC)c(OC)c3c2cc1O [Compound 11, 2,6-dihydroxy-3,4,7-trimethoxyphenanthrene]
- IC50 [3, 14]: 100 µg/mL (≈ 333 µM)
- IC50 [4, 15]: 100 µg/mL (≈ 333 µM)
- Germination Ratio [6]: 50%

From patent publication US4022842A, “Bibenzyl compounds” (Rikagaku Kenkyusho, priority 1972, dated 1977)
